Test: Comparison of pure TQ with Nigella sativa oil
Details: administration of pure TQ
Description: Nevertheless, some embodiments of the invention may include N. sativa oil and/or its essential oil, either as the sole or primary active or in combination with EPA and/or GLA. […] Thus, N. sativa essential oil may provide a therapeutic or prophylactic effect in some embodiments of the invention, particularly in those embodiments in which one or more other actives (e.g., EPA, GLA, etc.) are also administered. Similarly, embodiments of the invention may include derivatives and/or precursors of TQ, including polymers of TQ.

CC1=CC(=O)C(C(C)C)=CC1=O [TQ, 2-isopropyl-5-methylbenzo-1,4-quinone]
effectiveness relative to Nigella sativa oil: more effective than the administration of Nigella sativa oil
